Results on four molecules are retold here after article PMC5048684 (The journal of physical chemistry. B, 2016).

Read-outs that look alike come from different tables or passages of the source.

Test [1] concerns the target T1, CYP2C9 (Homo sapiens, UniProt P11712). The experiment in a line: Luminescence titration of solubilized CYP2C9 with type I and type II ligands.
Test [2] concerns the target T1, CYP2C9. The settings on record: read-out: KS (reported value); ref Hutzler et al. 31; cited from earlier work.
The target of the next test is CYP3A4 (Homo sapiens, UniProt P08684). The experiment in a line: Luminescence titration of solubilized CYP3A4 with type I and type II ligands.
Sequence of CYP3A4 (P08684 whole entry): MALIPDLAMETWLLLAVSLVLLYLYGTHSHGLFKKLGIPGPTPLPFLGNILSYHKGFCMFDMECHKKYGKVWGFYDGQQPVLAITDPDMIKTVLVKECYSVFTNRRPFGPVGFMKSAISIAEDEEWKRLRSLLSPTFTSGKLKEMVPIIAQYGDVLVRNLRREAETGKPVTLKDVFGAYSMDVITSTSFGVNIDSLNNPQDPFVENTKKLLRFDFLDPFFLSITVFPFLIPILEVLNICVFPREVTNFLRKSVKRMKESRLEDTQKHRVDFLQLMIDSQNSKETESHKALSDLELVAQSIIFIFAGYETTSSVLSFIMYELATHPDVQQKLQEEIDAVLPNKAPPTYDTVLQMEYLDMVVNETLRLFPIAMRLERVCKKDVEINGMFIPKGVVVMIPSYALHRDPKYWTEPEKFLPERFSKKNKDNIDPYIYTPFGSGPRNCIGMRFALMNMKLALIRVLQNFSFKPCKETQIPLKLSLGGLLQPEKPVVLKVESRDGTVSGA
The target in a further test is T2, P450cam (Pseudomonas putida, UniProt P00183).
T2 sequence (P00183 1-415): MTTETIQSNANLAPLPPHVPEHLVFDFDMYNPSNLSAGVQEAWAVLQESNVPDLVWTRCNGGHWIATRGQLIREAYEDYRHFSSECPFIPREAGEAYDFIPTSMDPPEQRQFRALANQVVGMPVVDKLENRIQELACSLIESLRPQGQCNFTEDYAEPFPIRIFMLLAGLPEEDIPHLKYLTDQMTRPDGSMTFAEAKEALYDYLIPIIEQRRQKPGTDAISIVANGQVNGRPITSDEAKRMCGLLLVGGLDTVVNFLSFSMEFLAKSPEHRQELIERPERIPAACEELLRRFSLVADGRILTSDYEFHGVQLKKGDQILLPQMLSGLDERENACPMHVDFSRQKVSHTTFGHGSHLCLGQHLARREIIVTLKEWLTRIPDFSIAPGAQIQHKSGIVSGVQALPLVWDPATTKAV
The settings on record: read-out: KS (literature values); depending on the stereoisomer used; cited from earlier work.

T1 sequence (P11712 whole entry): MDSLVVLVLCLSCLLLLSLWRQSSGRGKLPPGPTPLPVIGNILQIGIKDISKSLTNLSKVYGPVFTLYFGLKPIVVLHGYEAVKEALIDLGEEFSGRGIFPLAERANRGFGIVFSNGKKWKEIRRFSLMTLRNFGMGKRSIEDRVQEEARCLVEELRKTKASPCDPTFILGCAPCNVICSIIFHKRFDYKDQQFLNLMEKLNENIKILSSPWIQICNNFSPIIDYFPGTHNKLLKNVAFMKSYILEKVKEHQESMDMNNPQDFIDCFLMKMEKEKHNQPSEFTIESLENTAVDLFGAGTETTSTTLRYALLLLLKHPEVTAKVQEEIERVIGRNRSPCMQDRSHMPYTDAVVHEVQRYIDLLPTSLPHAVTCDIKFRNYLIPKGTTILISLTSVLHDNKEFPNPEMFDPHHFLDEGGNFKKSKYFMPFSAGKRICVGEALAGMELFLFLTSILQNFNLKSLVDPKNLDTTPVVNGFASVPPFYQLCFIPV

Consider `CC(C(=O)O)c1ccc(-c2ccccc2)c(F)c1` (centres unmarked) [flurbiprofen], for which the Kd at CYP2C9 [1] was 20.2 ± 1.1 µM; on CYP2C9 [2], 14.1 µM.

On to `O=C(Nc1ccc2ccccc2c1)c1cc(-c2ccncc2)nc2ccccc12` [QC, N-(naphthalene-2-yl)-2-(pyridine-4-yl)quinoline-4-carboxamide], for which the Kd on CYP2C9 [1] is 0.11 ± 0.06 µM.

Molecule `C[C@]12CC[C@H]3[C@@H](CCC4=CC(=O)CC[C@@]43C)[C@@H]1CC[C@@H]2O` [testosterone] gave a Kd on CYP3A4 of 30.5 ± 6.5 µM.

On to `CC12CCC(CC1=O)C2(C)C` (centres unmarked) [camphor], for which, at P450cam, the Kd was 1.6 to 2.6 µM.
